These results are taken from patent US12331052B2, “Organic compounds” (INTRA-CELLULAR THERAPIES, INC., priority 2018, dated 2025).

For data set [1], the system named is rats. As to conditions: for Motility Ratio: 30 minutes prior to charcoal bolus.
The test system of data set [2] is rats. Kind of data set: Pulmonary function in rats. Format: in vivo. The note with it: for RR: 60 minutes.
For data set [3] the following is noted: rat, in vivo.
The conditions of data set [4]: male, Sprague-Dawley, rat, in vivo, sc, 0.3 mg/kg.
Data set [5] relates to tyrosine hydroxylase phosphorylation at Ser40. Description: CNS phosphoprotein profile, nucleus accumbens: TH. Type of data set: in vivo, mice. As to conditions: for increase in TH phosphorylation: mice nucleus accumbens, haloperidol 2 mg/kg, relative to vehicle-treated control. As for the experimental part: (§1) A comprehensive molecular phosphorylation study is also carried out to examine the central nervous system (CNS) profile of the compound of Example 1. The extent of protein phosphorylation for selected key central nervous system proteins is measured in mice nucleus accumbens.
(§2) Mice were killed 30 minutes to 2 hours post-injection by focused microwave cranial irradiation, which preserves brain phosphoprotein as it exists at the time of death. Nucleus accumbens was then dissected from each mouse brain, sliced and frozen in liquid nitrogen. Samples were further prepared for phosphoprotein analysis via SDS-PAGE electrophoresis followed by phosphoprotein-specific immunoblotting, as described in Zhu H, et al., Brain Res. 2010 Jun. 25; 1342:11-23. Phosphorylation at each site was quantified, normalized to total levels of the protein (non-phosphorylated), and expressed as percent of the level of phosphorylation in vehicle-treated control mice.

The test system of data set [6] is C57 mice. As to conditions: mouse, in vivo.
In data set [7] the test system is male Sprague-Dawley rats. Description: Rat tolerance/dependence study (28 day).
Data set [8] has as its system mice. Kind of data set: Mouse marble-burying study (OCD model). Format: in vivo. As to conditions: 0.3 mg/kg orally 30 minutes prior, of 15 marbles. The source says:
The marble burying test is used to measure repetitive and anxiety-related behavior in rodents. It is based on the observation that rats and mice will bury either harmful or harmless objects in their bedding, and it has been used as an animal model to measure the effect of pharmacological interventions in treatment of repetitive behavior disorders, such as OCD.
MPEP is a selective mGluR5 glutamate receptor antagonist. […] Mice in groups (1) are orally administered the vehicle, and mice in group (4) are given an intraperitoneal injection of MPEP just prior to the start of the test.
The test is conducted in rectangular cages with 4-5 cm of wood chip bedding in a room with the window shades lowered and the door closed to minimize distractions. Fifteen clean marbles are evenly spaced on top of the bedding in three rows of five marbles. One mouse is placed in each cage. The mouse in the cage is left undisturbed for 30 minutes. At the end of the test, the mouse is removed and the number of marbles buried to at least ⅔ of their depth is counted.

In data set [9] the test system is NR2B phosphorylation at Tyr1472. Description: CNS phosphoprotein profile, nucleus accumbens: NR2B. Type of data set: in vivo, mice. The note with it: 3 mg/kg; at 30-60 minutes. As to the method: as §1, §2
The target in data set [10] is SERT (Homo sapiens, UniProt P31645). Description: biochemical. The note with it: read-out: maximum inhibition. Format: binding.
SERT, sequence (P31645 whole entry, species assumed): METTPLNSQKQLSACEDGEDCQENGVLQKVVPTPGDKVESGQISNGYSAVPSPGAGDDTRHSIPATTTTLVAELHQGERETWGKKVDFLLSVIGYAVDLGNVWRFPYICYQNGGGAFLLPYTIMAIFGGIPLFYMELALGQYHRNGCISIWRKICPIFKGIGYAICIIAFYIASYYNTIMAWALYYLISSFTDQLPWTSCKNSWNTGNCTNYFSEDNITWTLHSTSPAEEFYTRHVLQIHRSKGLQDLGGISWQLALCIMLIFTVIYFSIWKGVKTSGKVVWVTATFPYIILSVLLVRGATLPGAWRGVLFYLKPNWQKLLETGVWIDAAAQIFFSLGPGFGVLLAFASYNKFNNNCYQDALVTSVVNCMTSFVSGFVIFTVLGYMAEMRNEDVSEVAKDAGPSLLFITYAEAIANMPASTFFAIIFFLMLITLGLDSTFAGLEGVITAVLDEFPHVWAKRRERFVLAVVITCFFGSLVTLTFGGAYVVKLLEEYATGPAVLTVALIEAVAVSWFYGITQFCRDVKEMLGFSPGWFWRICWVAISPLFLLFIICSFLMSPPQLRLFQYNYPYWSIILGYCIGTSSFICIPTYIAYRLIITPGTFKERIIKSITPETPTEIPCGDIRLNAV
Data set [11] addresses 5-HT2A (Homo sapiens, UniProt P28223). Description: biochemical. The note with it: read-out: maximum inhibition. Format: binding.
The target of data set [12] is D2 (Homo sapiens, UniProt P14416). Description: Receptor binding, D2. The note with it: @ 100 nM; read-out: maximum inhibition.
D2, sequence (P14416 1-414 isoform P14416-2): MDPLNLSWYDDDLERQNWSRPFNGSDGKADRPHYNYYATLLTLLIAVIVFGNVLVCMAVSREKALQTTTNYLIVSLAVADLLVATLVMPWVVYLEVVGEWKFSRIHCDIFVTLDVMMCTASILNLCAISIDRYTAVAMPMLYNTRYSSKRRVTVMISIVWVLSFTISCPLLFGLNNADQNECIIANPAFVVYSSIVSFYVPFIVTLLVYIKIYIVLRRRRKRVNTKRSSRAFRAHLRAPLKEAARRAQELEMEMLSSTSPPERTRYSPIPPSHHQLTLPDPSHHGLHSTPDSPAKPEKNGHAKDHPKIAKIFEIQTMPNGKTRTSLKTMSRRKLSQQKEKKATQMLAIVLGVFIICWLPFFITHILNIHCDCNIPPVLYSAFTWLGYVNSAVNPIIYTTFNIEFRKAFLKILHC
The target of data set [13] is D1 (Homo sapiens, UniProt P21728). Kind of data set: Receptor binding, D1. The note with it: @ 100 nM; read-out: maximum inhibition.
D1, sequence (P21728 whole entry): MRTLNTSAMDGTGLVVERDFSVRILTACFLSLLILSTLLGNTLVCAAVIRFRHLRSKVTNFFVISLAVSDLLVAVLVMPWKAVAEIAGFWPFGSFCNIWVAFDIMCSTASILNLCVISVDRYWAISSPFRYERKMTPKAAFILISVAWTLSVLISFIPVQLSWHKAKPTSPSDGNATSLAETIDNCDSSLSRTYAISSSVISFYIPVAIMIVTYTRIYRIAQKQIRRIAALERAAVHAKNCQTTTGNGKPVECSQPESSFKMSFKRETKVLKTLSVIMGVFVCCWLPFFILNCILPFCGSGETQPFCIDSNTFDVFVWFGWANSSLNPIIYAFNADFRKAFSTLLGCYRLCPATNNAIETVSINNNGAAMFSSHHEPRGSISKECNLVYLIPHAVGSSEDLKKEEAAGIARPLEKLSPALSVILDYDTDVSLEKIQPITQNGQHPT
Data set [14] deals with male C57BL/6J mice. The note with it: mouse, in vivo.

Several values for one entry are separate records, joined by “and”; a condition that tells them apart may be missing. Equal values may be shown once. Read-outs that look alike come from different tables or passages of the source.

5-HT2A, sequence (P28223 whole entry): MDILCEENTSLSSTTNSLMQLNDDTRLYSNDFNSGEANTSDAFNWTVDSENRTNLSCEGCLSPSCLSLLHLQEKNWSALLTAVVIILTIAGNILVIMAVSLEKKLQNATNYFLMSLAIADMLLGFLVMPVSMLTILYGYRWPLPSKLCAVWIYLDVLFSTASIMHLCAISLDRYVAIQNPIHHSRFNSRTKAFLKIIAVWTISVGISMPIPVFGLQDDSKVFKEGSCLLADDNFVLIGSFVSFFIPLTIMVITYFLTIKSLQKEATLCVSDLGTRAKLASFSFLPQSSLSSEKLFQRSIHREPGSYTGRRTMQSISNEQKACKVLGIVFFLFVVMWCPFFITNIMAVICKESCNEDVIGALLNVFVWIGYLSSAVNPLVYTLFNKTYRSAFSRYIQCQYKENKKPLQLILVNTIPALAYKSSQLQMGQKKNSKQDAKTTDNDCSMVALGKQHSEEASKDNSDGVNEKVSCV

For `O=C1CN2c3c(cccc3[C@@H]3CN(CCCOc4ccc(F)cc4)CC[C@@H]32)N1` [Example 1, (6bR,10aS)-8-(3-(4-fluorophenoxy)propyl)-6b,7,8,9,10,10a-hexahydro-1H-pyrido[3′,4′:4,5]pyrrolo[1,2,3-de]quinoxalin-2(3H)-one], in data set [1] (at a dose up to 3 mg/kg), the “effect on gastrointestinal motility” value is recorded as “no significant effect”. Moreover, the RR was determined as 181 breaths/min in data set [2] (0.3 mg/kg SC), 203 breaths/min in data set [2] (1.0 mg/kg SC) and 190 breaths/min in [2] (3.0 mg/kg SC). Also, the “respiratory rate, tidal volume and minute volume vs vehicle” value in data set [2] (0.3, 1.0 and 3.0 mg/kg SC, 0, 15, 60, 120, 240 minutes) was “no significant differences”. Besides, the Bioavailability in [3] (iv, 1 mg/kg) is 100%. Moreover, the t-1/2 in [3] (po, 10 mg/kg) was 3.1 h; in data set [3] (sc, 3 mg/kg), 9.5 h. Moreover, the peak plasma concentrations in data set [4] was 15 to 38 ng/mL. For the same compound, in [5] (3 mg/kg, at 30 minutes or 60 minutes), the “effect on tyrosine hydroxylase phosphorylation at Ser40” value is on record as “no significant effect”. The “Mean Behavior Rating (0-4)” value in data set [6] (po, 3 mg/kg) was 0.9 and 0.8 and 1.5; in [6] (sc, 1 mg/kg), 1.0 and 1.9 and 1.1. Also, in [7] (0.3 and 3 mg/kg), the “physical dependence upon cessation of dosing” value is “not to produce a syndrome of physical dependence”. For the same compound, in data set [7] (0.3 and 3 mg/kg four times), the “tolerance during subcutaneous dosing for 28 days” value is reported as “does not produce tolerance”. Besides, in data set [7] (0.3 and 3 mg/kg s.c. four times per day, on-dose or withdrawal phase), the “effect on animal body weight, food and water intake or body temperature” value is reported as “no significant effect”. Besides, the “main behavioral and physical signs” value in [7] (higher dose (3 mg/kg)) was “hunched posture, subdued behavior, Straub tail, tail rattle and piloerection”. Besides, the “predominant behavioral and physical effects, dosing phase” value in [7] (repeated administration at 0.3 mg/kg) was “hunched posture, Straub tail and piloerection”. In addition, in data set [8], the “Marbles Buried” value stood at 9.3. The “effect on NR2B phosphorylation at Tyr1472” value in [9] was “no significant effect”.
For the compound `O=C1CN2c3c(cccc3[C@@H]3CN(CCCc4n[nH]c5cc(F)ccc45)CC[C@@H]32)N1` [Example 2, (6bR,10aS)-8-(3-(6-fluoro-1H-indazol-3-yl)propyl)-6b,7,8,9,10,10a-hexahydro-1H-pyrido[3′,4′:4,5]pyrrolo[1,2,3-de]quinoxalin-2(3H)-one], the “Motility Ratio” value was 0.50 in [1] (0.3 mg/kg SC), 0.55 in data set [1] (1 mg/kg SC) and 0.50 in [1] (3 mg/kg SC).
One may read the inhibition as the share of the control response that was lost under treatment. With `O=C1CN2c3c(cccc3[C@@H]3CN(CCCOc4cccc(F)c4)CC[C@@H]32)N1` [Example 20, (6bR,10aS)-8-(3-(3-fluorophenoxy)propyl)-6b,7,8,9,10,10a-hexahydro-1H-pyrido[3′,4′:4,5]pyrrolo[1,2,3-de]quinoxalin-2(3H)-one], the inhibition at 0.2 µM in [10] turned out to be 8%. Further, the inhibition at 0.1 µM in [11] stood at 79%; in data set [12], 14%; in [13], 32%.
With `O=C1CN2c3c(cccc3[C@@H]3CN(CCCOc4ccccc4F)CC[C@@H]32)N1` [Example 21, (6bR,10aS)-8-(3-(2-fluorophenoxy)propyl)-6b,7,8,9,10,10a-hexahydro-1H-pyrido[3′,4′:4,5]pyrrolo[1,2,3-de]quinoxalin-2(3H)-one], the inhibition at 0.2 µM in data set [10] came to 5%. The inhibition at 0.1 µM in data set [11] turned out to be 88%; in data set [12], 28%; in [13], 18%.
Turning to `CC(C)N1C(=O)CN2c3c(cccc31)[C@@H]1CN(CCCOc3ccc(F)cc3)CC[C@@H]12` [Example 22, (6bR,10aS)-8-(3-(4-fluorophenoxy)propyl)-3-isopropyl-6b,7,8,9,10,10a-hexa-hydro-1H-pyrido[3′,4′:4,5]pyrrolo[1,2,3-de]quinoxalin-2(3H)-one], the inhibition at 0.2 µM in data set [10] amounted to 11%. Further, the inhibition at 0.1 µM in data set [11] is 81%; in [12] it was 39%; in data set [13], 70%.
As to `O=C1CN2c3c(cccc3[C@@H]3CN(CCCOc4ccc(I)cc4)CC[C@@H]32)N1` [Example 23, (6bR,10aS)-8-(3-(4-iodophenoxy)propyl)-6b,7,8,9,10,10a-hexahydro-1H-pyrido[3′,4′:4,5]pyrrolo[1,2,3-de]quinoxalin-2(3H)-one], the inhibition at 0.2 µM in [10] was found to be 48%. Further, the inhibition at 0.1 µM in [11] is 81%; in data set [12], 14%; in [13], 3%.
Regarding `O=C1CN2c3c(cccc3[C@@H]3CN(CCCOc4ccc(Br)cc4)CC[C@@H]32)N1` [Example 24, (6bR,10aS)-8-(3-(4-bromophenoxy)propyl)-6b,7,8,9,10,10a-hexahydro-1H-pyrido[3′,4′:4,5]pyrrolo[1,2,3-de]quinoxalin-2(3H)-one], the inhibition at 0.2 µM in data set [10] was determined as 44%. Besides, the inhibition at 0.1 µM was 72% in data set [11], 8% in [12] and 3% in [13].
Consider `Cc1ccc(OCCCN2CC[C@H]3[C@@H](C2)c2cccc4c2N3CC(=O)N4)cc1` [Example 25, (6bR,10aS)-8-(3-(p-tolyloxy)propyl)-6b,7,8,9,10,10a-hexahydro-1H-pyrido-[3′,4′:4,5]pyrrolo[1,2,3-de]quinoxalin-2(3H)-one], for which, in [10], the inhibition at 0.2 µM came to 10%. Further, the results for the inhibition at 0.1 µM in data set [11], in data set [12] and in [13] were 62%, 21% and 14%, respectively.
Regarding `CN1CC[C@]23c4c5ccc(O)c4O[C@H]2[C@@H](O)C=C[C@H]3[C@H]1C5` [Morphine, morphine, reference compound], the “reduction in gastric motility” value in data set [1] (5 mg/kg SC) is ~50%.
In the case of `C=CCN1CC[C@]23c4c5ccc(O)c4O[C@H]2C(=O)CC[C@@]3(O)[C@H]1C5` [Naloxone, naloxone], in [14], the “Body Weight Loss” value was determined as 0.5%, the Jumps is reported as 0, the “Paw Tremors” value is 0.87 and the “Total Number of Signs” value is 2.2.
For `O=C(CCCN1CCC(O)(c2ccc(Cl)cc2)CC1)c1ccc(F)cc1` [haloperidol], the “increase in TH phosphorylation” value in [5] is listed as “greater than 400%”.
`Cc1nc2n(c(=O)c1CCN1CCC(c3noc4cc(F)ccc34)CC1)CCCC2` [risperidone]: in data set [5], the “increase in TH phosphorylation” value was “greater than 500%”.
